Experimental data reported in paper PMC8201443 (Journal of Medicinal Chemistry, 2021).
“Also recorded” adds a separate entry of the source. Like-named read-outs stand apart in the source and are kept apart here.

Assays:
[1] = more potent than lenalidomide; cited from earlier work
IKZF1(ZF2)-CRBN/DDB1 = IKZF1(ZF2)-CRBN/DDB1 (Homo sapiens, UniProt Q96SW2); test: AlphaScreen assay, IKZF1; assay type: biochemical; conditions: dose response up to highest concentration
[2] = tested on: MV4-11, MHH-CALL-4, HD-MB03, MB002 and MB004 cells; assay type: cell-based, human
IKZF1 [3] = molecular target: T1, IKZF1 (Homo sapiens, UniProt Q13422); test: Immunoblot, IKZF1 degradation in MHH-CALL-4 cells; assay type: cell-based; conditions: any concentration tested
T1 sequence (Q96SW2 whole entry partner): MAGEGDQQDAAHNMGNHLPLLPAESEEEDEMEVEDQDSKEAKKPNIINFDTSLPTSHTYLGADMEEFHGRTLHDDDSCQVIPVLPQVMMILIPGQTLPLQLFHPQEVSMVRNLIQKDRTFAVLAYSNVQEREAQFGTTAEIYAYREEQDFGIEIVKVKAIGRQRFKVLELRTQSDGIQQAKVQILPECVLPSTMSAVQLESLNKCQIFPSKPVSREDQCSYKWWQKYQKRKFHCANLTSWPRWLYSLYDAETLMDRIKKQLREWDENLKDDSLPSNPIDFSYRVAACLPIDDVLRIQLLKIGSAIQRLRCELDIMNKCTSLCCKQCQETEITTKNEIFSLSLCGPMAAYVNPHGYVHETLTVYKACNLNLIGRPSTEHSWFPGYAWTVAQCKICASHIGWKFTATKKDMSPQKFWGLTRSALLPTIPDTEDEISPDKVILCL
T1 sequence (Q16531 whole entry partner): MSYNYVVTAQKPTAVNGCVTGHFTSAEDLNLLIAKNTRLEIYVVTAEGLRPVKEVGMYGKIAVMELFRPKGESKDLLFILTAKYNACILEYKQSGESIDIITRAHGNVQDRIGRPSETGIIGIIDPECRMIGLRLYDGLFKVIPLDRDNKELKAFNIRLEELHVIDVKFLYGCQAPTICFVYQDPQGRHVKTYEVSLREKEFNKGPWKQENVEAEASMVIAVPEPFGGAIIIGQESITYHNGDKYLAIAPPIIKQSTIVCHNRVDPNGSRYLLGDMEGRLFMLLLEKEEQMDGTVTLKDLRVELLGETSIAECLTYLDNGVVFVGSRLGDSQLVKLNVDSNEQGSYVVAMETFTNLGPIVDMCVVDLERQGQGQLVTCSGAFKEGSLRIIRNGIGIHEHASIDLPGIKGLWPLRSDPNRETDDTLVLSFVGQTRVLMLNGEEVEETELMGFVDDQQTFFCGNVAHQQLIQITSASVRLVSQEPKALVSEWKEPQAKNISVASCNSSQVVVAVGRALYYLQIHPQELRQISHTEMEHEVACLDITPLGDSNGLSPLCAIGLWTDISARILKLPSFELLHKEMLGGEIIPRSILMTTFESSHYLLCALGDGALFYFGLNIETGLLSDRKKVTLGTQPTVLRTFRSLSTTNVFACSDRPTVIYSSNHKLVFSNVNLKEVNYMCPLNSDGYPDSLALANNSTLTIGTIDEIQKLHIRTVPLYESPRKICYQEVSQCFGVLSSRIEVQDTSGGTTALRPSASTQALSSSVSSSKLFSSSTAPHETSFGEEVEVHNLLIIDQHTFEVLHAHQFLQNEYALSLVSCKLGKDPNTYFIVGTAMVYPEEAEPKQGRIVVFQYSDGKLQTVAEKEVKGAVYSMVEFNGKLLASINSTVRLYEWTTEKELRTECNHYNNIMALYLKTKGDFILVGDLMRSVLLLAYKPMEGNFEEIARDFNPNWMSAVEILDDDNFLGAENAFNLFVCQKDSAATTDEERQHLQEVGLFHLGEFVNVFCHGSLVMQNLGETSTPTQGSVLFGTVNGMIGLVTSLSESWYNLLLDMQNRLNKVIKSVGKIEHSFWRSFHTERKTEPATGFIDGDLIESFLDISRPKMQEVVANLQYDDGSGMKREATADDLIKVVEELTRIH
T1 sequence (Q13422 whole entry): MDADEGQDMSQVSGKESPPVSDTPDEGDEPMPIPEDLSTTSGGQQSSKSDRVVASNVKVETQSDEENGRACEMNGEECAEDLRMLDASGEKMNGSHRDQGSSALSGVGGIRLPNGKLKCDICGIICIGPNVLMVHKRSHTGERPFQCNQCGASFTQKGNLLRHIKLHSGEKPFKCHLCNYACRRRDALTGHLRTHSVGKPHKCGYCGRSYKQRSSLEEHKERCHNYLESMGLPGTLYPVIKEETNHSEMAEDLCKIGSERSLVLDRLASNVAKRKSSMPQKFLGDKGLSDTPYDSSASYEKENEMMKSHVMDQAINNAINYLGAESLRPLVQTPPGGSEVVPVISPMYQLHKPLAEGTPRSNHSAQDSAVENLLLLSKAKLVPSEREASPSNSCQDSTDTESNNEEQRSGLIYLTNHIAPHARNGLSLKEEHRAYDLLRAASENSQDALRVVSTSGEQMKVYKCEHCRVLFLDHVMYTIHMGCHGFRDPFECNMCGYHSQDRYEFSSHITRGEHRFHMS

GSPT1(G575N) = GSPT1(G575N) (Homo sapiens, UniProt P15170, G437N); assay type: cell-based
Chain of GSPT1(G575N) (Q96SW2 whole entry partner): as the sequence (Q96SW2 whole entry partner) above
Chain of GSPT1(G575N) (Q16531 whole entry partner): as the sequence (Q16531 whole entry partner) above
Chain of GSPT1(G575N) (P15170 1-637 isoform P15170-3 G575N): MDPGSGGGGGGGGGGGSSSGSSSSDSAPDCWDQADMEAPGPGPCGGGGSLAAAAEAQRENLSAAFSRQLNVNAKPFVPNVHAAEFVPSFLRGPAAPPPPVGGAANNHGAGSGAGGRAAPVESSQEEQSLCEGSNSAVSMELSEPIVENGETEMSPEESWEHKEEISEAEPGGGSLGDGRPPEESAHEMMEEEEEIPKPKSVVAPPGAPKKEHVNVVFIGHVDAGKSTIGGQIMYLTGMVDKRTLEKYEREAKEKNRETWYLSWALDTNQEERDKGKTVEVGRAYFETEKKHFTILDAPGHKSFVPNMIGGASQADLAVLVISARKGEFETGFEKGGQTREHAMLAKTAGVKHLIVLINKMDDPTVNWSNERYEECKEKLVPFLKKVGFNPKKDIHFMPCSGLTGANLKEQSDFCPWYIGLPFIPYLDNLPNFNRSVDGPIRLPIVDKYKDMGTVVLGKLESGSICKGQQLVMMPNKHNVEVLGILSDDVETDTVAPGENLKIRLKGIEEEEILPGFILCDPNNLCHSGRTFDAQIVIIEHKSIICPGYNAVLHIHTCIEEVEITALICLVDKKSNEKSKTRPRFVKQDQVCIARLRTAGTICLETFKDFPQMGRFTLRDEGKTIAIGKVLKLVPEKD

[4] = tested on: CRBN knockout MV4-11 cells; test: Cell viability, wild-type vs CRBN knockout MV4-11 cells; assay type: cell-based, human; conditions: 3 days
MV4-11 cells [5] = test: Cell viability; assay type: cell-based, human; conditions: for activity in cells (in words): cellular assays of Table 2; for EC50: Homo sapiens
[6] = Liver microsomes stability assay, mouse; assay type: in vitro ADME; conditions: CD-1, mouse, pH 7.4
MV4-11 cells [7] = test: TMT quantitative proteomics in MV4-11 cells; assay type: cell-based, human; conditions: 1 μM, 4 h
IKZF1 [8] = molecular target: T1, IKZF1; conditions: for IKZF1 protein levels in GSPT1(G575N) mutant cell line (in words): MV4-11 GSPT1(G575N)-FLAG cells, 24 h; for IKZF1 degradation after 4 h (in words): MV4-11 cells, any concentration tested
[9] = tested on: MV4-11 cells stably expressing GSPT1(G575N)-FLAG; assay type: cell-based, human
MB002 cells = test: Cell viability; assay type: cell-based; conditions: Homo sapiens, MB002, 72 h, read-out: EC50 (nM) MB002
caspase 3/7 = test: Caspase-Glo 3/7 activity assay in MV4-11 cells; assay type: cell-based, human; conditions: MV4-11, 10 and 100 nM; timepoints 4, 8 and 24 h
MV4-11 cells [10] = test: Lenalidomide competition assay, MV4-11 viability; assay type: cell-based, human; conditions: MV4-11, co-treatment with 10 μM lenalidomide, 3 days
[11] = Liver microsomes stability assay, human; assay type: in vitro ADME; conditions: pooled liver microsomes, pH 7.4
GSPT1 = GSPT1 (Homo sapiens, UniProt P15170+Q96SW2); test: Immunoblot, GSPT1 degradation in MV4-11 cells; assay type: cell-based; conditions: MV4-11, 4 h
Chain of GSPT1 (P15170 1-637 isoform P15170-3): as the sequence (P15170 1-637 isoform P15170-3 G575N) above, with N575G counted along it
Chain of GSPT1 (Q96SW2 whole entry): as the sequence (Q96SW2 whole entry partner) above
Chain of GSPT1 (Q16531 whole entry partner): as the sequence (Q16531 whole entry partner) above

hGSPT1-HiBit = hGSPT1-HiBit (Homo sapiens, UniProt P15170+Q96SW2); test: hGSPT1 HiBiT assay in HEK293 cells; assay type: cell-based; conditions: SAR discussion of Table 2
Chain of hGSPT1-HiBit (P15170 1-637 isoform P15170-3): as the sequence (P15170 1-637 isoform P15170-3 G575N) above, with N575G counted along it
Chain of hGSPT1-HiBit (Q96SW2 whole entry): as the sequence (Q96SW2 whole entry partner) above
Chain of hGSPT1-HiBit (Q16531 whole entry partner): as the sequence (Q16531 whole entry partner) above

Chain of IKZF1(ZF2)-CRBN/DDB1 (Q96SW2 40-442 limits assumed): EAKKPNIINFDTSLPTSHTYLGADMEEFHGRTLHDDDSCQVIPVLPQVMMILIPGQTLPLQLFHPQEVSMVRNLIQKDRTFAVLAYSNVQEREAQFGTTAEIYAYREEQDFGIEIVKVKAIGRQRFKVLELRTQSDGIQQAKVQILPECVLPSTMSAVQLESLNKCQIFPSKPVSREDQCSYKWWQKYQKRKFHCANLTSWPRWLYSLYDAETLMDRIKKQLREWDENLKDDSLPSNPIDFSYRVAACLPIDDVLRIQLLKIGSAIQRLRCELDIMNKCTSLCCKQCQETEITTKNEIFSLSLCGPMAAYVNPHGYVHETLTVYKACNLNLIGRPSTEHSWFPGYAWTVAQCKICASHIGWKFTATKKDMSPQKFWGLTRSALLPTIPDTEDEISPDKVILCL
Chain of IKZF1(ZF2)-CRBN/DDB1 (Q16531 whole entry partner): as the sequence (Q16531 whole entry partner) above

O=C1CC[C@H](N2Cc3c(OCc4ccc(CN5CCOCC5)cc4)cccc3C2=O)C(=O)N1 [CC-220, reference compound]
potency in cells relative to lenalidomide [1]: 10 fold
IKZF1(ZF2)-CRBN/DDB1 complex formation, AlphaScreen signal (in words) (IKZF1(ZF2)-CRBN/DDB1): strong dose response; also recorded: dose-dependent AlphaScreen signal

Cc1ccc(NC(=O)NCc2ccc3c(c2)CN(C2CCC(=O)NC2=O)C3=O)cc1Cl (stereo not shown) [CC-885]
antiproliferative effect across the five cell lines (in words) [2]: displayed antiproliferative effects in all five cell lines

O=C1CCC(N2C(=O)c3ccc(NS(=O)(=O)c4ccccc4OC(F)(F)F)cc3C2=O)C(=O)N1 (stereo not shown) [compound 6, N-(2-(2,6-Dioxopiperidin-3-yl)-1,3-dioxoisoindolin-5-yl)-2-(trifluoromethoxy)benzenesulfonamide]
IKZF1 degradation after 4 h (in words) (IKZF1 [3]): did not significantly degrade IKZF1
degradation of GSPT1(G575N) mutant (in words) (GSPT1(G575N)): not degraded
antiproliferative activity in the absence of CRBN (in words) [4]: abolished
activity in cells (in words) (MV4-11 cells [5]): most potent compound in the series
CLint scaled at 4 h, 10 µM [6]: 12 mL/min/kg
abundance of CNTNAP4 and SERPINF1 (in words) (MV4-11 cells [7]): less pronounced but statistically significant reductions
abundance of IMiD neosubstrates IKZF1/3 and CK1α (in words) (MV4-11 cells [7]): not affected
proteins most reduced in abundance (in words) (MV4-11 cells [7]; 8927 quantified proteins): reduced most potently and selectively abundance of GSPT1 and GSPT2
IKZF1 protein levels in GSPT1(G575N) mutant cell line (in words) (IKZF1 [8]): unaffected
IKZF1 degradation after 4 h (in words) (IKZF1 [8]): did not significantly degrade IKZF1
antiproliferation effect in cells expressing GSPT1(G575N) (in words) [9]: completely abrogated
EC50 (MB002 cells): 726 nM
timepoint at which caspase activation was observed (caspase 3/7): 8 h
antiproliferative effect across the five cell lines (in words) [2]: demonstrated antiproliferative activities across the panel
IKZF1(ZF2)-CRBN/DDB1 complex formation, AlphaScreen signal (in words) (IKZF1(ZF2)-CRBN/DDB1): neither 6 nor 7 showed a signal; also recorded: showed no effect even at the highest concentration
antiproliferative effect in the presence of lenalidomide (in words) (MV4-11 cells [10]): abrogating the antiproliferative effects
CLint scaled at 4 h, 10 µM [11]: 4 mL/min/kg

Cc1c(Cl)cccc1S(=O)(=O)Nc1ccc2c(c1)C(=O)N(C1CCC(=O)NC1=O)C2=O (stereo not shown) [compound 7, 3-Chloro-N-(2-(2,6-dioxopiperidin-3-yl)-1,3-dioxoisoindolin-5-yl)-2-methylbenzenesulfonamide]
IKZF1 degradation after 4 h (in words) (IKZF1 [3]): did not significantly degrade IKZF1
degradation of GSPT1(G575N) mutant (in words) (GSPT1(G575N)): not degraded
antiproliferative activity in the absence of CRBN (in words) [4]: abolished
EC50 (MV4-11 cells [5]; MV4-11, 72 h, read-out: EC50 (nM) MV4-11): 52 nM
EC50 (MV4-11 cells [5]; MV4-11, read-out: MV4-11 EC50 (μM)): 52 nM
IKZF1 protein levels in GSPT1(G575N) mutant cell line (in words) (IKZF1 [8]): unaffected
IKZF1 degradation after 4 h (in words) (IKZF1 [8]): did not significantly degrade IKZF1
antiproliferation effect in cells expressing GSPT1(G575N) (in words) [9]: completely abrogated
EC50 (MB002 cells): 5010 nM
timepoint at which caspase activation was observed (caspase 3/7): 24 h
antiproliferative effect across the five cell lines (in words) [2]: demonstrated antiproliferative activities across the panel
IKZF1(ZF2)-CRBN/DDB1 complex formation, AlphaScreen signal (in words) (IKZF1(ZF2)-CRBN/DDB1): neither 6 nor 7 showed a signal; also recorded: showed no effect even at the highest concentration
antiproliferative effect in the presence of lenalidomide (in words) (MV4-11 cells [10]): abrogating the antiproliferative effects

O=C1CCC(N2C(=O)c3ccc(NS(=O)(=O)c4ccccc4)cc3C2=O)C(=O)N1 (stereo not shown) [compound 8, N-(2-(2,6-Dioxopiperidin-3-yl)-1,3-dioxoisoindolin-5-yl)benzenesulfonamide]
activity in cells (in words) (MV4-11 cells [5]): inactive

Cc1ccc(S(=O)(=O)Nc2ccc3c(c2)C(=O)N(C2CCC(=O)NC2=O)C3=O)cc1Cl (stereo not shown) [compound 9, 3-Chloro-N-(2-(2,6-dioxopiperidin-3-yl)-1,3-dioxoisoindolin-5-yl)-4-methylbenzenesulfonamide]
activity in cells (in words) (MV4-11 cells [5]): no effect in cellular assays

O=C1CCC(N2C(=O)c3ccc(NS(=O)(=O)c4cccc(OC(F)(F)F)c4)cc3C2=O)C(=O)N1 (stereo not shown) [compound 10, N-(2-(2,6-Dioxopiperidin-3-yl)-1,3-dioxoisoindolin-5-yl)-3-(trifluoromethoxy)benzenesulfonamide]
activity in cells (in words) (MV4-11 cells [5]): no activity in cells
effect on IKZF1 protein level (in words) (IKZF1 [8]; immunoblot, MV4-11, 4 h): no effects on the protein levels
effect on GSPT1 protein level (in words) (GSPT1): no effects on the protein levels

O=C1CCC(N2C(=O)c3ccc(NS(=O)(=O)c4ccc(OC(F)(F)F)cc4)cc3C2=O)C(=O)N1 (stereo not shown) [compound 11, N-(2-(2,6-Dioxopiperidin-3-yl)-1,3-dioxoisoindolin-5-yl)-4-(trifluoromethoxy)benzenesulfonamide]
activity in cells (in words) (MV4-11 cells [5]): no activity in cells

COc1ccccc1S(=O)(=O)Nc1ccc2c(c1)C(=O)N(C1CCC(=O)NC1=O)C2=O (stereo not shown) [compound 12, N-(2-(2,6-Dioxopiperidin-3-yl)-1,3-dioxoisoindolin-5-yl)-2-methoxybenzenesulfonamide]
activity in cells (in words) (MV4-11 cells [5]): inactive in cells

Cc1ccccc1S(=O)(=O)Nc1ccc2c(c1)C(=O)N(C1CCC(=O)NC1=O)C2=O (stereo not shown) [compound 13, N-(2-(2,6-Dioxopiperidin-3-yl)-1,3-dioxoisoindolin-5-yl)-2-methylbenzenesulfonamide]
activity in cells (in words) (MV4-11 cells [5]): lack of potent cell activity

O=C1CCC(N2C(=O)c3ccc(NS(=O)(=O)c4ccccc4C(F)(F)F)cc3C2=O)C(=O)N1 (stereo not shown) [compound 14, N-(2-(2,6-Dioxopiperidin-3-yl)-1,3-dioxoisoindolin-5-yl)-2-(trifluoromethyl)benzenesulfonamide]
GSPT1 degradation (in words) (hGSPT1-HiBit): potent degrader of GSPT1

O=C1CCC(N2C(=O)c3ccc(NS(=O)(=O)c4cccc(Cl)c4)cc3C2=O)C(=O)N1 (stereo not shown) [compound 15, 3-Chloro-N-(2-(2,6-dioxopiperidin-3-yl)-1,3-dioxoisoindolin-5-yl)benzenesulfonamide]
activity in cells (in words) (MV4-11 cells [5]): lack of potent cell activity

Nc1cccc2c1CN(C1CCC(=O)NC1=O)C2=O (stereo not shown) [lenalidomide]
antiproliferative effect across the five cell lines (in words) [2]: insensitive

Nc1cccc2c1C(=O)N(C1CCC(=O)NC1=O)C2=O (stereo not shown) [pomalidomide]
antiproliferative effect across the five cell lines (in words) [2]: insensitive

O=C1CCC(N2C(=O)c3ccccc3C2=O)C(=O)N1 (stereo not shown) [thalidomide]
antiproliferative effect across the five cell lines (in words) [2]: insensitive
